Drawing on patent US5300499A, “5-substituted 3-thiophene sulfonamides as antiglaucoma agents” (Allergan, Inc., priority 1992, dated 1994), this text covers IC50 for 40 compounds.

Structures are written as SMILES. pIC50: −log10 of the molar value. Values joined by “and” are separate entries in the source; they are usually repeats but may differ in a detail not shown here. Equal values may be shown once.

In general, pIC50 refers to −log10 of the IC50, conventionally taken in molar units. Low values mean a high IC50, high ones a low IC50.

This assay concerns the target T1, pure CA11 enzyme from human erythrocyte (Homo sapiens, UniProt P00918).
T1 construct: pure CA11 enzyme from human erythrocyte; from tissue; host or cells: human erythrocyte
Put plainly: Carbonic anhydrase activity assay, micromethod of Maren. As to conditions: concentration that lowers the enzyme activity to half; 0°-4° C.; phenol red endpoint, pH 9.9 to 6.8. The class given is biochemical. The procedure: Carbonic anhydrase activity was assayed according to the micromethod of Maren (J. Pharmacol. Exptl. Therap., 130, 26-29, 1960). All solutions and reagents were maintained at 0°-4° C. The final assay mixture contained 16 mM phenol red, added enzyme and 62.5 mM sodium carbonate/bicarbonate. Its volume was kept constant at 0.8 mL. The time required for the added enzyme to lower the pH of CO2 -saturated carbonate/bicarbonate buffer from pH 9.9 to 6.8 was measured using the color change of phenol red as endpoint. T1 is the time recorded for the reaction containing no enzyme. T2 is the time recorded for the reaction containing pure CA11 enzyme from human erythrocyte, or an unknown amount in a sample. Enzyme activities (unit) were calculated using the formula:
Unit/ug=(T1 -T2)/(T2 *ug protein used in assay)
IC50 of a carbonic anhydrase inhibitor is the concentration that lowers the enzyme activity to half.

`NS(=O)(=O)c1csc(C(=O)c2ccccc2F)c1` [5-(2-fluorobenzoyl)-3-thiophene sulfonamide]: the pIC50 was 7.74.
The compound `CC(C)(C)OC(=O)c1ccc(C(=O)c2cc(S(N)(=O)=O)cs2)cc1` [5-(4-t-butoxycarbonylbenzoyl)-3-thiophene sulfonamide] showed a pIC50 of 8.52.
The value for `NS(=O)(=O)c1csc(C(=O)c2cc(F)cc(F)c2)c1` [5-(3.5-difluorobenzoyl)-3-thiophene sulfonamide] was 7.82; that for `COC(c1cccc(C(F)(F)F)c1)c1cc(S(N)(=O)=O)cs1` (stereo not shown) [5-[(methoxy)(3-trifluoromethylphenyl)methyl]-3-thiophene sulfonamide] was 7.74; that for `CCC(=O)Oc1ccc(C(=O)c2cc(S(N)(=O)=O)cs2)cc1` [5-(4-propionoxybenzoyl)-3-thiophene sulfonamide] was 8.05.
The result for `NS(=O)(=O)c1csc(C(=O)c2ccc(C(=O)O)cc2)c1` [5-(4-carboxybenzoyl)-3-thiophene sulfonamide] reads 8.47 and 8.30; that for `CCCCCCC(O)c1cc(S(N)(=O)=O)cs1` (stereo not shown) [5-(1-hydroxy-n-heptyl)-3-thiophene sulfonamide], 7.51.
The value for `COc1ccc(C(=NO)c2cc(S(N)(=O)=O)cs2)cc1` [5-(4-methoxybenzoyl)-3-thiophene sulfonamide, oxime] was 7.51; that for `NS(=O)(=O)c1csc(C(=O)c2cccc(C=O)c2)c1` [5-(3-formylbenzoyl)-3-thiophene sulfonamide] was 8.14; that for `NS(=O)(=O)c1csc(C(=O)c2ccc(C=O)cc2)c1` [5-(4-formylbenzoyl)-3-thiophene sulfonamide] was 7.89.
The compound `CC(=O)OC(c1ccccc1)c1cc(S(N)(=O)=O)cs1` (stereo not shown) [5-[(phenyl)(acetoxy)methyl]-3-thiophene sulfonamide] showed a pIC50 of 7.05.
The value for `CN(C)Cc1cc(C(=O)c2cc(S(N)(=O)=O)cs2)ccc1O` [5-(4-hydroxy-3-(N,N-dimethylaminomethyl)benzoyl)-3-thiophene sulfonamide] was 7.52; that for `NS(=O)(=O)c1csc(C(=O)c2ccccn2)c1` [[5-(3-sulfonamidothienyl)][2-pyridyl] ketone] was 7.72; that for `COc1ccc(C(=O)c2cc(S(N)(=O)=O)cs2)cc1` [5-(4-methoxybenzoyl)-3-thiophene sulfonamide] was 7.59.
The value for `COC(c1ccc(CO)cc1)c1cc(S(N)(=O)=O)cs1` (stereo not shown) [5-[(methoxy)(4-hydroxymethylphenyl)]methyl-3-thiophene sulfonamide] was 7.89; that for `NS(=O)(=O)c1csc(C(=O)c2cccc(C(F)(F)F)c2)c1` [5-(3-trifluoromethylbenzoyl)-3-thiophene sulfonamide] was 8.08.
The value for `NS(=O)(=O)c1csc(C(O)c2ccc(C=O)cc2)c1` (stereo not shown) [5-(4-formylbenzhydrol)-3-thiophene sulfonamide] was 7.74; that for `NS(=O)(=O)c1csc(C(=O)c2cccc(O)c2)c1` [5-(3-hydroxybenzoyl)-3-thiophene sulfonamide] was 8.17; that for `CC(=O)OCc1ccc(C(=O)c2cc(S(N)(=O)=O)cs2)cc1` [5-(4-acetoxymethylbenzoyl)-3-thiophene sulfonamide] was 8.22.
As to `CCCCC(O)c1cc(S(N)(=O)=O)cs1` (stereo not shown) [5-(1-hydroxy-n-pentyl)-3-thiophene sulfonamide], the pIC50 was 7.49.
The result for `NS(=O)(=O)c1csc(C(O)c2ccc(O)cc2)c1` (stereo not shown) [5-(4-hydroxybenzhydrol)3-thiophene sulfonamide] reads 7.59; that for `CCCCc1ccc(C(=O)c2cc(S(N)(=O)=O)cs2)cc1` [5-(4-butylbenzoyl)-3-thiophene sulfonamide], 8.06; that for `NS(=O)(=O)c1csc(C(=O)c2cccc(OC(=O)c3ccccc3)c2)c1`, 8.28.
The value for `NS(=O)(=O)c1csc(C(O)c2ccccc2)c1` (stereo not shown) [5-benzhydrol-3-thiophene sulfonamide, 5-(benzhydrol)-3-thiophene sulfonamide] was 7.13.
The result for `CCOC(=O)c1ccc(C(=O)c2cc(S(N)(=O)=O)cs2)cc1` [5-(4-ethoxycarbonylbenzoyl)-3-thiophene sulfonamide] reads 8.22; that for `NS(=O)(=O)c1csc(C(O)c2ccccn2)c1` (stereo not shown) [5-[(hydroxy)(pyridyl)methyl]-3-thiophene sulfonamide], 6.62; that for `NS(=O)(=O)c1csc(C(=O)c2cccc(C(=O)O)c2)c1` [5-(3-carboxylbenzoyl)-3-thiophene sulfonamide], 7.96 and 7.85.
`COc1ccc(C(O)c2cc(S(N)(=O)=O)cs2)cc1` (stereo not shown) [5-(4-methoxybenzhydrol)-3-thiophene sulfonamide] gave a pIC50 of 7.80.
The result for `CC(=O)Oc1ccc(C(=O)c2cc(S(N)(=O)=O)cs2)cc1` [5-(4-acetoxybenzoyl)-3-thiophene sulfonamide] reads 7.92 and 8.44; that for `CN(C)Cc1cc(C(=O)c2cc(S(N)(=O)=O)cs2)cc(CN(C)C)c1O` [5-(4-hydroxy-3,5-(bis-N,N-dimethylaminomethyl)benzoyl)-3-thiophene sulfonamide], 6.81.
The result for `NS(=O)(=O)c1csc(C(O)c2ccc(CO)cc2)c1` (stereo not shown) [5-(4-hydroxymethylbenzhydrol)-3-thiophene sulfonamide] reads 7.39; that for `NS(=O)(=O)c1csc(C(O)c2cccc(O)c2)c1` (stereo not shown) [5-(3-hydroxybenzhydrol)-3-thiophene sulfonamide], 7.43.
The value for `CCCCC(=NO)c1cc(S(N)(=O)=O)cs1` [5-(1-pentanoyl)-3-thiophene sulfonamide, oxime] was 7.66.
In turn, `NS(=O)(=O)c1csc(C(=O)c2ccc(CO)cc2)c1` [5-(4-hydroxymethylbenzoyl)-3-thiophene sulfonamide] showed a pIC50 of 7.77.
For the compound `CCCCC(=O)c1cc(S(N)(=O)=O)cs1` [5-(1-pentanoyl)-3-thiophene sulfonamide], the pIC50 is 7.57.
The value for `CCCCCCC(=O)c1cc(S(N)(=O)=O)cs1` [5-(1-heptanoyl)-3-thiophene sulfonamide] was 7.85; that for `NS(=O)(=O)c1csc(C(=O)c2ccc(O)cc2)c1` [5-(4-hydroxybenzoyl)-3-thiophene sulfonamide] was 7.77.
The result for `NS(=O)(=O)c1csc(C(=O)c2cccc(F)c2)c1` [5-(3-fluorobenzoyl)-3-thiophene sulfonamide] reads 7.92.
The compound `NS(=O)(=O)c1csc(C(=O)c2ccccc2)c1` [5-benzoyl-3-thiophene sulfonamide] showed a negative logarithm of the IC50 (pIC50) of 7.89.
The result for `NS(=O)(=O)c1csc(C(=NO)c2ccccc2)c1` [5-benzoyl-3-thiophene sulfonamide, oxime] reads 7.28.
